Measured values taken from patent publication USRE47388E1, “Agents for alleviating side effects” (TAIHO PHARMACEUTICAL CO., LTD., priority 1999, dated 2019).
Counter-ions that a name gives are not always drawn. Marks after values point to notes of the source that are not given here. Each block holds one compound with its values, some of them ahead of it.

Experiments:
Yoshida sarcoma = test: Test 3: action on anti-tumor action of cancer drug (tumor weight); assay type: in vivo, Donryu male rats; settings: for Tumor weight: day 8; for Anti-tumor action / inhibition of tumor weight (in words): CDDP alone 6 mg/kg, Compound 1 for seven consecutive days with CDDP; for Inhibition ratio (%): tumor shrinkage vs control
[1] = Test 3: suppression of body weight increase in tumor-bearing rats; assay type: in vivo, Donryu male rats; settings: for Suppression of body weight (in words): CDDP alone 6 mg/kg, Compound 1 for seven consecutive days with CDDP; for Body weight change: day 0 to day 8; for Weight change ratio (%): ratio of suppression of body weight increase vs control
Protocol: CDDP was suspended in saline so as to obtain a 0.6 mg/ml suspension, and the suspension was stirred by use of a stirrer for about 20 minutes at room temperature. The suspension was subjected to sonication for 5 minutes while being cooled with ice to thereby obtain a test solution containing CDDP for administration at 6.0 mg/kg/day.
Compound 1 was suspended in 0.5% HPMC so as to obtain a 3 mg/ml suspension, 10 mg/ml suspension, and 30 mg/ml suspension, respectively, and each suspension was stirred by use of a stirrer for about 20 minutes at room temperature. Each suspension was subjected to sonication for 5 minutes while being cooled with ice to thereby obtain test solutions containing Compound 1 for administration at 30 mg/kg/day, 100 mg/kg/day, and 300 mg/kg/day, respectively.
Five-week-old Donryu male rats were divided into a control group and treatment groups so that the average body weights of the groups and the standard deviations (S.D.) of the groups were made to be as close to one another as possible. Yoshida sarcoma (2×10^4 cells/0.1 ml/rat) was subcutaneously transplanted on the back of each rat, and administration was started the day following the day of transplant. To each rat of the CDDP treatment alone groups, the CDDP solution of 6.0 mg/kg was intravenously administered on the first administration day, and a 0.5% HPMC solution was orally administered for seven consecutive days at a daily dose of 1.0 ml per 100 g of body weight. […] To each rat of the control group, saline was intravenously administered on the first administration day in a dose of 1.0 ml per 100 g of body weight. Simultaneously, a 0.5% HPMC solution was orally administered once a day for five consecutive days at a daily dose of 1.0 ml per 100 g of body weight. In order to observe the action of Compound 1 per se, Compound-1-administration alone groups were provided for administration at 30 mg/kg/day, 100 mg/kg/day, and 300 mg/kg/day, respectively.
The rats were weighed on the day of transplantation (day 0) and the day following the day of final administration (day 8), and the suppression ratio of body weight increase was calculated by use of the following equation. Ratio of suppression of body weight increase (%)=(1−body weight changes of one treatment group/body weight changes of the control group)×100

[2] = Test 2: delaying effect on diarrhea occurrence caused by CPT-11; assay type: in vivo, Donryu male rats; settings: CPT-11 60 mg/kg/day i.v. every day for five days; Compound 1 30 mg/kg/day oral concomitantly
Protocol: Irinotecan hydrochloride (hereinafter referred to as “CPT-11”; KAMPTO Injection 100 mg/5 ml; product of Yakult Co., Ltd.) was diluted with saline so as to obtain a 6 mg/ml solution for administration at 60 mg/kg/day.
Compound 1 was suspended in a 0.5% hydroxypropylmethyl cellulose solution (hereinafter referred to as “0.5% HPMC”) so as to obtain a 3 mg/ml suspension, and the suspension was stirred by use of a stirrer for about 20 minutes at room temperature. The suspension was subjected to ultrasound treatment for 5 minutes while being cooled with ice, to thereby obtain a test solution containing Compound 1 for administration at 30 mg/kg/day.
Five-week-old Donryu male rats were divided into a control group and treatment groups so that the average body weights of the groups and the standard deviations (S.D.) of the groups were made to be as close to one another as possible. To each rat of the anti-tumor-agent treatment alone groups, the CPT-11 solution was intravenously administered once a day for five consecutive days at a daily dose of 1.0 ml per 100 g of body weight. […] The number of rats which had diarrhea at least once during the test period were counted as “diarrhea-rats”. The accumulated occurrence of diarrhea was calculated by use of the following equation: accumulated occurrence of diarrhea (%)=(the number of rats which had diarrhea/the total number of rats)×100

IL-1β = test: Test 4: IL-1β level in the large intestine (ELISA); assay type: in vivo, ICR mice; settings: for Level of IL-1β in the large intestine (in words): FTD 200 mg/kg/day eight consecutive days vs control, Compound 1 94 mg/kg incorporated; for Large intestine IL-1β: day 9, oral, eight days, FTD 200 mg/kg/day, Compound 1 94 mg/kg/day in the mixture, alone 100 mg/kg/day
Protocol: (§1) To each rat of the control group, a 0.5% HPMC solution was perorally administered for eight consecutive days. In order to observe the action of Compound 1 per se, Compound 1-administration alone groups were provided for administration of 100 mg/kg/day. […] Immediately after the collected region were washed with saline, the portions were frozen to preserve at −80° C. Each sample preparation was diluted with a 0.05M phosphate buffer (pH 7.4) so as to attain a tissue concentration of approximately 10% (W/V), and the resultant mixture was homogenized, subjected to sonication, and subjected twice to freeze-thawing. The thus-treated matter was centrifuged at 12,000 g for 15 minutes, and the supernatant was collected to serve as a sample for cytokine measurement. Cytokines, i.e., IL-1β and mouse IL-6 were measured by use of an ELISA kit for mouse (product of Endogen, Inc.), and the results are shown in Table 4. Test results were statistically analyzed in accordance with the Dunnett method ((*; p<0.05) and (**; p<0.01)).

[3] = Test 4: measurement of body weight change after FTD; assay type: in vivo, ICR mice; settings: for Weight change ratio (%): body weight changes/body weight before administration x100, eight days, alone 100 mg/kg/day; for Weight change ratio (%) / Body weight change: oral, FTD 200 mg/kg/day, Compound 1 94 mg/kg/day in the mixture; for Body weight change: day 0 to day 9, eight consecutive days, Compound 1 alone 100 mg/kg/day
Protocol: 5-Trifluoromethyl-2′-deoxyuridine (hereinafter abbreviated as FTD) was suspended in a 0.5% HPMC solution so as to obtain a 20 mg/ml suspension, and the suspension was stirred by use of a stirrer for about 20 minutes at room temperature.
FTD was suspended in a 0.5% HPMC solution so as to obtain a 20 mg/ml suspension. To the suspension, Compound 1 was added so as to attain a concentration of 9.4 mg/ml. The resultant mixture was stirred by use of a stirrer for about 20 minutes at room temperature, and then subjected to sonication under ice cooling, to thereby obtain a test solution containing FTD and Compound 1 (mol ratio 1:0.5).
Compound 1 was suspended in a 0.5% HPMC solution so as to obtain a 10 mg/ml suspension, and the suspension was stirred by use of a stirrer for about 20 minutes at room temperature. The suspension was subjected to sonication for 5 minutes under ice cooling, to thereby obtain a test solution containing Compound 1 for administration of 100 mg/kg/day.
Eight-week-old male ICR rats were divided into a control group and treatment groups so that the average body weights of the groups and the standard deviations (S.D.) of the groups were made to be as close to one another as possible. To each rat of the FTD treatment alone groups, the FTD solution of 200 mg/kg/day (1.0 ml) was orally administered once a day for eight consecutive days (per 100 g body weight of each rat). To each rat of combination-administration treatment groups, a mixture solution of FTD and Compound 1 was perorally administered once a day for eight consecutive days at a daily dose of 1.0 ml per 100 g of body weight. To each rat of the control group, a 0.5% HPMC solution was perorally administered for eight consecutive days. In order to observe the action of Compound 1 per se, Compound 1-administration alone groups were provided for administration of 100 mg/kg/day.
The rats were weighed at the previous day of the first administration (day 0) and the following day of the day of final administration (day 9), and the ratio of body weight ratio was calculated by use of the following equation. Ratio of body weight change (%)=body weight changes/body weight before administration×100

[4] = Test 1: alleviating effect on suppression of body weight increase caused by 5-FU or CDDP
Protocol: 5-Fluorouracil (hereinafter referred to as “5-FU”) was suspended in saline so as to obtain a 2.0 mg/ml suspension, and the suspension was stirred by use of a stirrer for about 20 minutes at room temperature. The suspension was treated with sonication for 5 minutes while being cooled with ice, to thereby obtain a test solution containing 5-FU for administration at 20 mg/kg/day.
Cisplatin (hereinafter referred to as “CDDP”) was suspended in saline so as to obtain a 0.1 mg/ml suspension, and the suspension was stirred by use of a stirrer for about 20 minutes at room temperature. The suspension was treated with sonication for 5 minutes while being cooled with ice, to thereby obtain a test solution containing CDDP for administration at 1.0 mg/kg/day.
Compound 1 was suspended in water so as to obtain a 10 mg/ml suspension, and the suspension was stirred by use of a stirrer for about 20 minutes at room temperature. The suspension was treated with sonication for 5 minutes while being cooled with ice, to thereby obtain a test solution containing Compound 1 for administration at 100 mg/kg/day.
Five-week-old Donryu male rats were divided into a control group and treatment groups so that the average body weights of the groups and the standard deviations (S.D.) of the groups were made to be as close to one another as possible. To each rat of the anti-tumor-agent treatment alone groups, the 5-FU solution or the CDDP solution was intravenously administered once a day for four consecutive days at a daily dose of 1.0 ml per 100 g of body weight. Simultaneously, water was orally administered once a day for four consecutive days at a daily dose of 1.0 ml per 100 g of body weight. To each rat of the combination-administration treatment groups, the 5-FU solution or the CDDP solution was intravenously administered once a day for four consecutive days at a daily dose of 1.0 ml per 100 g of body weight. Simultaneously, to each rat of the combination-administration groups, the solution of Compound 1 was orally administered once a day for four consecutive days at a daily dose of 1.0 ml per 100 g of body weight. To each rat of the control group, saline was intravenously administered once a day for four consecutive days at a daily dose of 1.0 ml per 100 g of body weight. Simultaneously, water was orally administered once a day for four consecutive days at a daily dose of 1.0 ml per 100 g of body weight.
The rats were weighed prior to initiation of administration (day 1) and on the day following the day of final administration (day 5), and the ratio of suppression of body weight increase was calculated by use of the following equation.
Test results were statistically analyzed using the Student's “T” test. […]

IL-6 = test: Test 4: IL-6 level in the small intestine and the large intestine (ELISA); assay type: in vivo, ICR mice; settings: for Level of inflammatory cytokine IL-6 in the small intestine and the large intestine (in words): FTD 200 mg/kg/day eight consecutive days vs control, Compound 1 94 mg/kg incorporated; for Large intestine IL-6 / Small intestine IL-6: day 9, oral, eight days, FTD 200 mg/kg/day, Compound 1 94 mg/kg/day in the mixture, alone 100 mg/kg/day
Protocol: as §1

[5] = CDDP 6.0 mg/kg i.v. on first day + vehicle oral 7 days
[6] = Compound 1 30 mg/kg/day oral 7 days, with CDDP 6.0 mg/kg i.v. day 1 or saline
[7] = Compound 1 100 mg/kg/day oral 7 days, with CDDP 6.0 mg/kg i.v. day 1 or saline
[8] = Compound 1 300 mg/kg/day oral 7 days, with CDDP 6.0 mg/kg i.v. day 1 or saline

Structure (SMILES): CCc1c2c(nc3ccc(OC(=O)N4CCC(N5CCCCC5)CC4)cc13)-c1cc3c(c(=O)n1C2)COC(=O)[C@]3(O)CC [CPT-11, Irinotecan hydrochloride, reference compound]
Accumulated occurrence of diarrhea (FIG. 1, in words) [2]: diarrhea occurred after the third administration day

Structure (SMILES): O=c1[nH]c(=O)n([C@H]2C[C@H](O)[C@@H](CO)O2)cc1C(F)(F)F [FTD, 5-Trifluoromethyl-2′-deoxyuridine, reference compound]
Level of IL-1β in the large intestine (in words) (IL-1β): elevated
Large intestine IL-1β (IL-1β): 77.3 ± 42.1** pg/mg protein
Weight change ratio (%) [3]: −17.6%
Body weight change [3]: -1.6 ± 4.7 g
Decrease ratio of the body weight at the following day of the final administration to that before administration ([3]; solo FTD 200 mg/kg daily for eight consecutive days): approximately 18%
Level of inflammatory cytokine IL-6 in the small intestine and the large intestine (in words) (IL-6): high level
Large intestine IL-6 (IL-6): 118.0 ± 47.6** pg/mg protein
Small intestine IL-6 (IL-6): 95.5 ± 19.2** pg/mg protein

The next lines start with results.

Suppression of body weight (in words) [1]: Significant inhibition
Weight change ratio (%) [1, 5]: 174.9%
Structure (SMILES): [NH2][Pt]([NH2])([Cl])[Cl] [CDDP, Cisplatin, reference compound]
Tumor weight (Yoshida sarcoma; CDDP 6.0 mg/kg i.v. on first day + 0.5% HPMC vehicle oral 7 days): 0.162 ± 0.155 g
Anti-tumor action / inhibition of tumor weight (in words) (Yoshida sarcoma): Significant inhibition of tumor weight
Inhibition ratio (%) (Yoshida sarcoma; [5]): 75.7%
Body weight change [1, 5]: -19.4 ± 8.6 g

Weight change ratio (%) [1, 6]: −13.1%
Weight change ratio (%) [1, 7]: 7.7%
Weight change ratio (%) [1, 8]: −8.5%
Accumulated occurrence of diarrhea (FIG. 1, in words) [2]: delayed
Structure (SMILES): Cl.N=C1CCCN1Cc1[nH]c(=O)[nH]c(=O)c1Cl [Compound 1, 5-Chloro-6-(2-iminopyrrolidin-1-yl)methyl-2,4-(1H,3H)-pyrimidinedione Hydrochloride]
Level of IL-1β in the large intestine (in words) (IL-1β): inhibited
Large intestine IL-1β (IL-1β): 23.7 ± 4.6 pg/mg protein
Anti-tumor action / inhibition of tumor weight (in words) (Yoshida sarcoma): without affecting the anti-tumor action
Tumor weight (Yoshida sarcoma; [6]): 0.787 ± 0.307 g
Tumor weight (Yoshida sarcoma; [7]): 0.816 ± 0.329 g
Tumor weight (Yoshida sarcoma; [8]): 0.829 ± 0.281 g
Inhibition ratio (%) (Yoshida sarcoma; [6]): −18.1%
Inhibition ratio (%) (Yoshida sarcoma; [7]): −22.4%
Inhibition ratio (%) (Yoshida sarcoma; [8]): −24.5%
Decrease in the body weight caused by FTD (in words) ([3]; Compound 1 94 mg/kg/day incorporated with FTD 200 mg/kg/day): protected
Weight change ratio (%) [3]: 6.8%
Body weight change [3]: 2.4 ± 1.1 g
Suppression of body weight (in words) [1]: suppression of body weight was alleviated
Body weight change [1, 6]: 29.3 ± 10.2 g
Body weight change [1, 7]: 23.9 ± 6.6 g
Body weight change [1, 8]: 28.1 ± 6.0 g
Occurrence of diarrhea, combination-administration groups vs anti-tumor-agent-administration alone groups ([4]; Compound 1 100 mg/kg/day with 5-FU 20 mg/kg/day or CDDP 1.0 mg/kg/day): lower
Level of inflammatory cytokine IL-6 in the small intestine and the large intestine (in words) (IL-6): inhibited
Large intestine IL-6 (IL-6): 10.7 ± 4.7 pg/mg protein
Small intestine IL-6 (IL-6): 19.8 ± 9.9 pg/mg protein

Suppression ratio (%) (ratio of suppression of body weight increase) ([4]; vs control group, 5-FU 20 mg/kg/day or CDDP 1.0 mg/kg/day i.v., Compound 1 100 mg/kg/day oral, four consecutive days): 46.7%
Structure (SMILES): O=c1[nH]cc(F)c(=O)[nH]1 [Compound 5-FU, 5-Fluorouracil]
Suppression of body weight increase (in words) ([4]; 5-FU 20 mg/kg/day or CDDP 1.0 mg/kg/day for 4 consecutive days, Compound 1 100 mg/kg/day in combination with the anti-tumor agent): Suppression of body weight increase was confirmed
Body weight change ([4]; day 1 to day 5, 5-FU 20 mg/kg/day or CDDP 1.0 mg/kg/day i.v., Compound 1 100 mg/kg/day oral, four consecutive days, mean ± S.D.): 15.6 ± 3.6 g
